This passage reports CD69 Hu Blood FACS (IC70) results from patent US8669251B2, “8-fluorophthalazin-1(2H)-one compounds” (Genentech, Inc., priority 2011, dated 2014).

In the first assay the test system is production of CD69 by B lymphocytes in human whole blood. The experiment in a line: CD69 Whole Blood Assay (CD69 Hu Blood FACS). Particulars: human whole blood activated with goat F(ab')2 anti-human IgM, 20 hours; CD69 on CD20 positive cells by FACS; Table 1. The class given is cell-based. The text has this:
A CD69 Whole Blood Assay can be conducted on Formula I compounds to determine the ability of compounds to inhibit the production of CD69 by B lymphocytes in human whole blood activated by crosslinking surface IgM with goat F(ab′)2 anti-human IgM (Example 907). CD69 is a type II C-type lectin involved in lymphocyte migration and cytokine secretion. CD69 expression represents one of the earliest available indicators of leukocyte activation and its rapid induction occurs through transcriptional activation (Vazquez et al (2009) Jour. of Immunology Published Oct. 19, 2009, doi:10.4049/jimmunol.0900839). Concentration-dependent inhibition of antigen receptor stimulation by selective Btk inhibitors induces cell surface expression of the lymphocyte activation marker CD69 (Honigberg et al (2010) Proc. Natl. Acad. Sci. 107(29):13075-13080). Thus, CD69 inhibition by selective Btk inhibitors may be correlated with therapeutic efficacy of certain B-cell disorders.
Human blood is obtained from healthy volunteers, with the following restrictions: 1 week drug-free, non-smokers. Blood (approximately 20 mls to test 8 compounds) is collected by venipuncture into Vacutainer® (Becton, Dickinson and Co.) tubes with sodium heparin.
Solutions of Formula I and II compounds at 10 mM in DMSO are diluted 1:10 in 100% DMSO, then are diluted by three-fold serial dilutions in 100% DMSO for a ten point dose-response curve. The compounds are further diluted 1:10 in PBS and then an aliquot of 5.5 μl of each compound is added in duplicate to a 2 ml 96-well plate; 5.5 μl of 10% DMSO in PBS is added as control and no-stimulus wells. Human whole blood —HWB (100 μl) is added to each well. After mixing the plates are incubated at 37° C., 5% CO2, 100% humidity for 30 minutes. Goat F(ab′)2 anti-human IgM (10 μl of a 500 μg/ml solution, 50 μg/ml final) is added to each well (except the no-stimulus wells) with mixing and the plates are incubated for an additional 20 hours. At the end of the 20 hour incubation, samples are incubated with fluorescent labeled antibodies for 30 minutes, at 37° C., 5% CO2, 100% humidity. Include induced control, unstained and single stains for compensation adjustments and initial voltage settings. Samples are then lysed with PharM Lyse™ (BD Biosciences Pharmingen) according to the manufacturer's instructions. Samples are then transferred to a 96 well plate suitable to be run on the BD Biosciences HTS 96 well system on the LSRII machine. Data acquired and Mean Fluorescence Intensity values were obtained using BD Biosciences DIVA Software. Results are initially analyzed by FACS analysis software (Flow Jo). […] The inhibitory concentration (IC50, IC70, IC90) values are calculated by Prism version 5, using a nonlinear regression curve fit.
In the case of `CN1CCN(c2ccc(Nc3cc(-c4cccc(-n5ncc6cc(C(C)(C)C)cc(F)c6c5=O)c4CO)cn(C)c3=O)nc2)CC1` [Compound 101, 6-tert-butyl-8-fluoro-2-(2-(hydroxymethyl)-3-(1-methyl-5-(5-(4-methylpiperazin-1-yl)pyridin-2-yl-amino)-6-oxo-1,6-dihydropyridin-3-yl)phenyl)phthalazin-1(2H)-one], the CD69 Hu Blood FACS (IC70) stood at 24 nM.

Compound `Cn1cc(-c2cc(F)cc(-n3ncc4cc(C(C)(C)C)cc(F)c4c3=O)c2CO)cc(Nc2ccc(N3CCN(C4COC4)CC3)cn2)c1=O` [Compound 102, 6-tert-butyl-8-fluoro-2-(5-fluoro-2-(hydroxymethyl)-3-(1-methyl-5-(5-(4-(oxetan-3-yl)piperazin-1-yl)pyridin-2-ylamino)-6-oxo-1,6-dihydropyridin-3-yl)phenyl)phthalazin-1(2H)-one] came in with a CD69 Hu Blood FACS (IC70) of 12 nM.

Compound `Cn1cc(-c2ccnc(-n3ncc4cc(C(C)(C)C)cc(F)c4c3=O)c2CO)cc(Nc2ccc(N3CCN(C4COC4)CC3)cn2)c1=O` [Compound 103, 6-tert-butyl-8-fluoro-2-(3-(hydroxymethyl)-4-(1-methyl-5-(5-(4-(oxetan-3-yl)piperazin-1-yl)pyridin-2-ylamino)-6-oxo-1,6dihydropyridin-3-yl)pyridin-2-yl)phthalazin-1(2H)-one] displayed a CD69 Hu Blood FACS (IC70) of 13 nM.

In turn, `C[C@H]1CN(C2COC2)CCN1c1ccc(Nc2cc(-c3cc(F)cc(-n4ncc5cc(C(C)(C)C)cc(F)c5c4=O)c3CO)cn(C)c2=O)nc1` [Compound 104, (S)-6-tert-butyl-8-fluoro-2-(5-fluoro-2-(hydroxymethyl)-3-(1-methyl-5-(5-(2-methyl-4-(oxetan-3-yl)piperazin-1-yl)pyridin-2-ylamino)-6-oxo-1,6-dihydropyridin-3-yl)phenyl)phthalazin-1(2H)-one] came in with a CD69 Hu Blood FACS (IC70) of 32.9 nM.

As to `C[C@H]1CN(C2COC2)CCN1c1ccc(Nc2cc(-c3ccnc(-n4ncc5cc(C(C)(C)C)cc(F)c5c4=O)c3CO)cn(C)c2=O)nc1` [Compound 105, (S)-6-tert-butyl-8-fluoro-2-(3-(hydroxymethyl)-4-(1-methyl-5-(5-(2-methyl-4-(oxetan-3-yl)piperazin-1-yl)pyridin-2-ylamino)-6-oxo-1,6-dihydropyridin-3-yl)pyridin-2-yl)phthalazin-1(2H)-one], the CD69 Hu Blood FACS (IC70) was determined as 6 nM.

`C[C@@H]1CN(C2COC2)CCN1c1ccc(Nc2cc(-c3cc(F)cc(-n4ncc5cc(C(C)(C)C)cc(F)c5c4=O)c3CO)cn(C)c2=O)nc1` [Compound 107, (R)-6-tert-butyl-8-fluoro-2-(5-fluoro-2-(hydroxymethyl)-3-(1-methyl-5-(5-(2-methyl-4-(oxetan-3-yl)piperazin-1-yl)pyridin-2-ylamino)-6-oxo-1,6-dihydropyridin-3-yl)phenyl)phthalazin-1(2H)-one]: the CD69 Hu Blood FACS (IC70) is 26.3 nM.

With `C[C@H]1CN(C2COC2)CCN1c1ccc(Nc2cc(-c3cncc(-n4ncc5cc(C(C)(C)C)cc(F)c5c4=O)c3CO)cn(C)c2=O)nc1` [Compound 109, (S)-6-tert-butyl-8-fluoro-2-(4-(hydroxymethyl)-5-(1-methyl-5-(5-(2-methyl-4-(oxetan-3-yl)piperazin-1-yl)pyridin-2-ylamino)-6-oxo-1,6-dihydropyridin-3-yl)pyridin-3-yl)phthalazin-1(2H)-one], the CD69 Hu Blood FACS (IC70) stood at 12 nM.

Consider `C[C@@H]1CN(c2ccc(Nc3cc(-c4ccnc(-n5ncc6cc(C(C)(C)C)cc(F)c6c5=O)c4CO)cn(C)c3=O)nc2)[C@@H](C)CN1C1COC1` [Compound 110, 6-tert-butyl-2-(4-(5-(5-((2S,5R)-2,5-dimethyl-4-(oxetan-3-yl)piperazin-1-yl)pyridin-2-ylamino)-1-methyl-6-oxo-1,6-dihydropyridin-3-yl)-3-(hydroxymethyl)pyridin-2-yl)-8-fluorophthalazin-1(2H)-one], for which the CD69 Hu Blood FACS (IC70) came out at 5.9 nM.

`CC[C@H]1CN(C2COC2)CCN1c1ccc(Nc2cc(-c3cc(F)cc(-n4ncc5cc(C(C)(C)C)cc(F)c5c4=O)c3CO)cn(C)c2=O)nc1` [Compound 111, (S)-6-tert-butyl-2-(3-(5-(5-(2-ethyl-4-(oxetan-3-yl)piperazin-1-yl)pyridin-2-ylamino)-1-methyl-6-oxo-1,6-dihydropyridin-3-yl)-5-fluoro-2-(hydroxymethyl)phenyl)-8-fluorophthalazin-1(2H)-one] returned a CD69 Hu Blood FACS (IC70) of 37.4 nM.

`CC[C@H]1CN(C2COC2)CCN1c1ccc(Nc2cc(-c3ccnc(-n4ncc5cc(C(C)(C)C)cc(F)c5c4=O)c3CO)cn(C)c2=O)nc1` [Compound 112, (S)-6-tert-butyl-2-(4-(5-(5-(2-ethyl-4-(oxetan-3-yl)piperazin-1-yl)pyridin-2-ylamino)-1-methyl-6-oxo-1,6-dihydropyridin-3-yl)-3-(hydroxymethyl)pyridin-2-yl)-8-fluorophthalazin-1(2H)-one]: the CD69 Hu Blood FACS (IC70) amounted to 32.9 nM.

Still in this assay, the particulars now being: human whole blood activated with goat F(ab')2 anti-human IgM, 20 hours; CD69 on CD20 positive cells by FACS; Table 2.
Compound `Cn1cc(-c2ccnc(-n3ncc4cc(C(C)(C)C)cc(F)c4c3=O)c2CO)cc(Nc2ccncn2)c1=O` [Compound 113, 6-tert-butyl-8-fluoro-2-[3-(hydroxymethyl)-4-[1-methyl-6-oxo-5-(pyrimidin-4-ylamino)-3-pyridyl]-2-pyridyl]phthalazin-1-one] came in with a CD69 Hu Blood FACS (IC70) of 82.3 nM.

As for `Cc1nccc(Nc2cc(-c3ccnc(-n4ncc5cc(C(C)(C)C)cc(F)c5c4=O)c3CO)cn(C)c2=O)n1` [Compound 114, 6-tert-butyl-8-fluoro-2-[3-(hydroxymethyl)-4-[1-methyl-5-[(2-methylpyrimidin-4-yl)amino]-6-oxo-3-pyridyl]-2-pyridyl]phthalazin-1-one], the CD69 Hu Blood FACS (IC70) turned out to be 11.4 nM.

As to `CN1CCc2nc(Nc3cc(-c4ccnc(-n5ncc6cc(C(C)(C)C)cc(F)c6c5=O)c4CO)cn(C)c3=O)sc2C1` [Compound 115, 6-tert-butyl-8-fluoro-2-[3-(hydroxymethyl)-4-[1-methyl-5-[(5-methyl-6,7-dihydro-4H-thiazolo[5,4-c]pyridin-2-yl)amino]-6-oxo-3-pyridyl]-2-pyridyl]phthalazin-1-one], the CD69 Hu Blood FACS (IC70) was determined as 73.2 nM.

Take `Cn1nc(-c2ccnc(-n3ncc4cc(C(C)(C)C)cc(F)c4c3=O)c2CO)cc(Nc2ccc(C(=O)N3CCOCC3)cn2)c1=O` [Compound 116, 6-tert-butyl-8-fluoro-2-[3-(hydroxymethyl)-4-[1-methyl-5-[[5-(morpholine-4-carbonyl)-2-pyridyl]amino]-6-oxo-pyridazin-3-yl]-2-pyridyl]phthalazin-1-one]: the CD69 Hu Blood FACS (IC70) was found to be 93.5 nM.

Consider `C[C@H]1CN(C2COC2)CCN1c1ccc(Nc2cc(-c3ccnc(-n4ncc5cc(C(C)(C)C)cc(F)c5c4=O)c3CO)nn(C)c2=O)nc1` [Compound 117, 6-tert-butyl-8-fluoro-2-[3-(hydroxymethyl)-4-[1-methyl-5-[[5-[(2S)-2-methyl-4-(oxetan-3-yl)piperazin-1-yl]-2-pyridyl]amino]-6-oxo-pyridazin-3-yl]-2-pyridyl]phthalazin-1-one], for which the CD69 Hu Blood FACS (IC70) was found to be 16.5 nM.

Turning to `CCn1nc(Nc2cc(-c3ccnc(-n4ncc5cc(C(C)(C)C)cc(F)c5c4=O)c3CO)cn(C)c2=O)cc1C` [Compound 118, 6-tert-butyl-2-[4-[5-[(1-ethyl-5-methyl-pyrazol-3-yl)amino]-1-methyl-6-oxo-3-pyridyl]-3-(hydroxymethyl)-2-pyridyl]-8-fluoro-phthalazin-1-one], the CD69 Hu Blood FACS (IC70) was 112 nM.
